Experimental data from patent US11180504B2 (ORCHID PHARMA LTD., priority 2016, dated 2021).
≈ marks a conversion by molar mass, not a printed value. Read-outs that look alike come from different tables or passages of the source.

How the values were obtained:
[1] = tested on: methicillin-sensitive Staphylococcus aureus; assay: MIC by broth micro-dilution (CLSI), methicillin-sensitive S. aureus; assay type: cell-based; details: MSSA S. aureus ATCC29213
[2] = tested on: carbapenem sensitive Escherichia coli; assay: MIC by broth micro-dilution (CLSI), carbapenem sensitive E. coli; assay type: cell-based
[3] = tested on: carbapenemase producing K. pneumoniae; assay: MIC by broth micro-dilution (CLSI), carbapenemase producing K. pneumoniae; assay type: cell-based, Klebsiella pneumoniae
[4] = tested on: carbapenem sensitive Pseudomonas aeruginosa; assay: MIC by broth micro-dilution (CLSI), carbapenem sensitive P. aeruginosa; assay type: cell-based
[5] = Staphylococcus aureus, ATCC 29213 / MSSA, read-out: MIC
[6] = Escherichia coli, ATCC25922, ESBL −ve E. coli ATCC25922, read-out: MIC
[7] = Klebsiella pneumoniae, ATCCBAA1705, KPC-2 K. pneumoniae ATCC BAA-1705, read-out: MIC
[8] = Pseudomonas aeruginosa, ATCC27853, Meropenem susceptible P. aeruginosa ATCC27853, read-out: MIC
[9] = KPC-2 K. pneumoniae ATCC BAA-1705
[10] = Meropenem susceptible P. aeruginosa ATCC27853

Structure (SMILES)	MIC [1, 5]	MIC [2, 6]	MIC [3, 7]	MIC [4, 8]	MIC [1]	MIC ([2]; ESBL −ve E. coli ATCC25922)	MIC [3, 9]	MIC [4, 10]	MIC ([1]; Staphylococcus aureus, ATCC29213|MSSA, read-out: MIC)
C[C@@H](NC(=O)Cn1cnnn1)[C@H]1C(=O)N2C(C(=O)O)=C(S[C@@H]3CN[C@H](C(=O)N4CC[C@@H](CN)C4)C3)[C@H](C)[C@H]12 [Example 472, (4R,5S,6R)-6-((R)-1-(2-(1H-tetrazol-1-yl)acetamido)ethyl)-3-((3S,5S)-5-((S)-3-(aminomethyl)pyrrolidine-1-carbonyl)pyrrolidin-3-ylthio)-4-methyl-7-oxo-1-azabicyclo[3.2.0]hept-2-ene-2-carboxylic acid]	4 µg/mL (≈ 7.3 µM)	0.5 µg/mL (≈ 0.913 µM)	2 µg/mL (≈ 3.65 µM)	2 µg/mL (≈ 3.65 µM)	–	–	–	–	–
C[C@@H](NC(=O)Cn1nnc(N)n1)[C@H]1C(=O)N2C(C(=O)O)=C(S[C@@H]3CN[C@H](C(=O)N(C)C)C3)[C@H](C)[C@H]12 [Example 315, (4R,5S,6R)-6-((R) - 1-(2-(5-amino-2H-tetrazol-2-yl)acetamido)ethyl)-3-((3S,5S)-5-(dimethylcarbamoyl)pyrrolidin-3-ylthio)-4-methyl-7-oxo-1-azabicyclo[3.2.0]hept-2-ene-2-carboxylic acid]	4 µg/mL (≈ 7.88 µM)	0.125 µg/mL (≈ 0.246 µM)	2 µg/mL (≈ 3.94 µM)	64 µg/mL (≈ 126 µM)	–	–	–	–	–
C[C@@H](NC(=O)Cn1cnnn1)[C@H]1C(=O)N2C(C(=O)O)=C(S[C@@H]3CN[C@H](C(=O)N4CCC[C@@H]4CN)C3)[C@H](C)[C@H]12 [Example 465, (4R,5S,6R)-6-((R)-1-(2-(1H-tetrazol-1-yl)acetamido)ethyl)-3-((3S,5S)-5-((R)-2-(aminomethyl)pyrrolidine-1-carbonyl)pyrrolidin-3-ylthio)-4-methyl-7-oxo-1-azabicyclo[3.2.0]hept-2-ene-2-carboxylic acid]	4 µg/mL (≈ 7.3 µM)	0.5 µg/mL (≈ 0.913 µM)	2 µg/mL (≈ 3.65 µM)	16 µg/mL (≈ 29.2 µM)	–	–	–	–	–
C[C@@H](NC(=O)Cn1cnnn1)[C@H]1C(=O)N2C(C(=O)O)=C(S[C@@H]3CN[C@H](C(=O)N4CCCC45CCCNC5)C3)[C@H](C)[C@H]12 (single isomer, unassigned) [Example 504]	–	–	–	–	2 µg/mL (≈ 3.4 µM)	0.5 µg/mL (≈ 0.851 µM)	4 µg/mL (≈ 6.81 µM)	32 µg/mL (≈ 54.4 µM)	–
C[C@@H](NC(=O)c1cnccn1)[C@H]1C(=O)N2C(C(=O)O)=C(S[C@@H]3CN[C@H](C(=O)N(C)C)C3)[C@H](C)[C@H]12 [Example 303, (4R,5S,6R)-3-((3S,5S)-5-(dimethylcarbamoyl)pyrrolidin-3-ylthio)-4-methyl-7-oxo-6-((R) - 1-(pyrazine-2-carboxamido)ethyl) - 1-azabicyclo[3.2.0]hept-2-ene-2-carboxylic acid]	2 µg/mL (≈ 4.09 µM)	4 µg/mL (≈ 8.19 µM)	64 µg/mL (≈ 131 µM)	> 128 µg/mL	–	–	–	–	–
C[C@@H](NC(=O)Cn1cnnn1)[C@H]1C(=O)N2C(C(=O)O)=C(S[C@@H]3CN[C@H](C(=O)Nc4ccc(CN)cc4)C3)[C@H](C)[C@H]12 [Example 484, (4R,5S,6R)-6-((R)-1-(2-(1H-tetrazol-1-yl)acetamido)ethyl)-3-((3S,5S)-5-(4-(aminomethyl)phenyl-carbamoyl)-pyrrolidin-3-ylthio)-4-methyl-7-oxo-1-azabicyclo[3.2.0]hept-2-ene-2-carboxylic acid]	2 µg/mL (≈ 3.51 µM)	1 µg/mL (≈ 1.76 µM)	4 µg/mL (≈ 7.02 µM)	32 µg/mL (≈ 56.2 µM)	–	–	–	–	–
CNCC(=O)N[C@H](C)[C@H]1C(=O)N2C(C(=O)O)=C(S[C@@H]3CN[C@H](CNS(=O)(=O)N4CCNCC4)C3)[C@H](C)[C@H]12 [Example 252]	16 µg/mL (≈ 28.6 µM)	2 µg/mL (≈ 3.57 µM)	4 µg/mL (≈ 7.15 µM)	16 µg/mL (≈ 28.6 µM)	–	–	–	–	–
C[C@@H](NC(=O)Cn1cnnn1)[C@H]1C(=O)N2C(C(=O)O)=C(S[C@@H]3CN[C@H](C(=O)N4CC5CCN(C(=N)N)C5C4)C3)[C@H](C)[C@H]12 (single isomer, unassigned) [Example 570]	–	–	–	–	1 µg/mL (≈ 1.66 µM)	0.125 µg/mL (≈ 0.208 µM)	1 µg/mL (≈ 1.66 µM)	2 µg/mL (≈ 3.32 µM)	–
C[C@@H](NC(=O)Cn1cnnn1)[C@H]1C(=O)N2C(C(=O)O)=C(S[C@@H]3CN[C@H](C(=O)N4CCC(C(=O)N5CCNCC5)CC4)C3)[C@H](C)[C@H]12 [Example 430, (4R,5S,6R)-6-((R)-1-(2-(1H-tetrazol-1-yl)acetamido)ethyl)-4-methyl-7-oxo-3-((3S,5S)-5-(4-(piperazine-1-carbonyl)piperidine-1-carbonyl)pyrrolidin-3-ylthio)-1-azabicyclo[3.2.0]hept-2-ene-2-carboxylic acid]	4 µg/mL (≈ 6.2 µM)	0.5 µg/mL (≈ 0.775 µM)	2 µg/mL (≈ 3.1 µM)	4 µg/mL (≈ 6.2 µM)	–	–	–	–	–
C[C@@H](NC(=O)Cn1cnnn1)[C@H]1C(=O)N2C(C(=O)O)=C(S[C@@H]3CN[C@H](C(=O)N4CC5C[C@H]6C[C@@]5(CN6)C4)C3)[C@H](C)[C@H]12 (stereo partly drawn) [Example 541, (4R,5S,6R)-6-((R)-1-(2-(1H-tetrazol-1-yl)acetamido)ethyl)-3-((3S,5S)-5-((1R,7S)-3,8-Diaza-tricyclo[5.2.1.01,5]decane-3-carbonyl)pyrrolidin-3-ylthio)-4-methyl-7-oxo-1-azabicyclo[3.2.0]hept-2-ene-2-carboxylic acid]	2 µg/mL (≈ 3.41 µM)	0.25 µg/mL (≈ 0.427 µM)	1 µg/mL (≈ 1.71 µM)	1 µg/mL (≈ 1.71 µM)	–	–	–	–	–
C[C@@H](NC(=O)Cn1cnnn1)[C@H]1C(=O)N2C(C(=O)O)=C(S[C@@H]3CN[C@H](C(=O)N4CCC(N5CC(CN)C5)CC4)C3)[C@H](C)[C@H]12 [Example 343, (4R,5S,6R)-6-((R) - 1-(2-(1H-tetrazol-1-yl)acetamido)ethyl)-3-((3S,5S)-5-(4-(3-(aminomethyl)azetidin-1-yl)piperidine-1-carbonyl)pyrrolidin-3-ylthio)-4-methyl-7-oxo-1-azabicycio[3.2.0]hept-2-ene-2-carboxylic acid]	16 µg/mL (≈ 25.9 µM)	2 µg/mL (≈ 3.24 µM)	8 µg/mL (≈ 13 µM)	8 µg/mL (≈ 13 µM)	–	–	–	–	–
C[C@@H](NC(=O)Cn1cnnn1)[C@H]1C(=O)N2C(C(=O)O)=C(S[C@@H]3CN[C@H](C(=O)N4CCC5CNCC5(C(=O)O)C4)C3)[C@H](C)[C@H]12 (stereo partly drawn) [Example 562, 5-((2S,4S)-4-((4R,5S,6R)-6-((R)-1-(2-(1H-tetrazol-1-yl)acetamido)ethyl)-2-carboxy-4-methyl-7-oxo-1-azabicyclo[3.2.0]hept-2-en-3-yl-thio)pyrrolidine-2-carbonyl)octahydro-1H-pyrrolo[3,4-c]pyridine-3a-carboxylic acid]	16 µg/mL (≈ 25.9 µM)	0.5 µg/mL (≈ 0.809 µM)	2 µg/mL (≈ 3.24 µM)	2 µg/mL (≈ 3.24 µM)	–	–	–	–	–
C[C@@H](NC(=O)Cn1cnnn1)[C@H]1C(=O)N2C(C(=O)O)=C(S[C@@H]3CN[C@H](C(=O)N4CCC5CNCC5(CO)C4)C3)[C@H](C)[C@H]12 (single isomer, unassigned) [Example 535]	–	0.25 µg/mL (≈ 0.414 µM)	2 µg/mL (≈ 3.31 µM)	1 µg/mL (≈ 1.66 µM)	–	–	–	–	2 µg/mL (≈ 3.31 µM)
C[C@@H](NC(=O)C(F)F)[C@H]1C(=O)N2C(C(=O)O)=C(S[C@@H]3CN[C@H](C(=O)N4C[C@H](NC(=N)N)[C@@H](O)C4)C3)[C@H](C)[C@H]12 [Example 247]	32 µg/mL (≈ 57.2 µM)	4 µg/mL (≈ 7.15 µM)	32 µg/mL (≈ 57.2 µM)	> 128 µg/mL	–	–	–	–	–
C[C@@H](NC(=O)Cn1cnnn1)[C@H]1C(=O)N2C(C(=O)O)=C(S[C@@H]3CN[C@H](C(=O)N4C[C@H](NC(=N)N)[C@@H](O)C4)C3)[C@H](C)[C@H]12 [Example 427, (4R,5S,6R)-6-((R)-1-(2-(1H-tetrazol-1-yl)acetamido)ethyl)-3-((3S,5S)-5-((3S,4S)-3-guanidino-4-hydroxypyrrolidine-1-carbonyl)pyrrolidin-3-ylthio)-4-methyl-7-oxo-1-azabicyclo[3.2.0]hept-2-ene-2-carboxylic acid]	2 µg/mL (≈ 3.38 µM)	0.25 µg/mL (≈ 0.423 µM)	1 µg/mL (≈ 1.69 µM)	2 µg/mL (≈ 3.38 µM)	–	–	–	–	–
C[C@@H](NC(=O)Cn1cnnn1)[C@H]1C(=O)N2C(C(=O)O)=C(S[C@@H]3CN[C@H](C(=O)N4CCN(C[C@@H](O)CN)CC4)C3)[C@H](C)[C@H]12 [Example 442, (4R,5S,6R)-6-((R)-1-(2-(1H-tetrazol-1-yl)acetamido)ethyl)-3-((3S,5S)-5-(4-((S)-3-amino-2-hydroxypropyl)piperazioe-1-carbonyl)pyrrolidin-3-ylthio)-4-methyl-7-oxo-1-azabicyclo[3.2.0]hept-2-ene-2-carboxylic acid]	2 µg/mL (≈ 3.3 µM)	0.125 µg/mL (≈ 0.206 µM)	1 µg/mL (≈ 1.65 µM)	0.5 µg/mL (≈ 0.824 µM)	–	–	–	–	–
C[C@@H](NC(=O)Cn1cnnn1)[C@H]1C(=O)N2C(C(=O)O)=C(S[C@@H]3CN[C@H](C(=O)N4CC[C@@H](NC(=O)CN)C4)C3)[C@H](C)[C@H]12 [Example 398, (4R,5S,6R)-6-((R)-1-(2-(1H-tetrazol-1-yl)acetamido)ethyl)-3-((3S,5S)-5-((R)-3-(2-aminoacetamido)pyrrolidine-1-carbonyl)pyrrolidin-3-ylthio)-4-methyl-7-oxo-1-azabicyclo[3.2.0]hept-2-ene-2-carboxylic acid]	4 µg/mL (≈ 6.77 µM)	0.25 µg/mL (≈ 0.423 µM)	1 µg/mL (≈ 1.69 µM)	2 µg/mL (≈ 3.39 µM)	–	–	–	–	–
C[C@@H](NC(=O)Cn1nnnc1C1CC1)[C@H]1C(=O)N2C(C(=O)O)=C(S[C@@H]3CN[C@H](C(=O)N4CC[C@@H](N)C4)C3)[C@H](C)[C@H]12 [Example 372, (4R,5S,6R)-3-((3S,5S)-5-((R)-3-aminopyrrolidine-1-carbonyl)pyrrolidin-3-ylthio)-6-((R)-1-(2-(5-cyclopropyl-1H-tetrazol-1-yl)acetamido)ethyl)-4-methyl-7-oxo-1-azabicyclo[3.2.0]hept-2-ene-2-carboxylic acid]	4 µg/mL (≈ 6.97 µM)	0.5 µg/mL (≈ 0.872 µM)	8 µg/mL (≈ 13.9 µM)	64 µg/mL (≈ 112 µM)	–	–	–	–	–
C[C@@H](NC(=O)C(F)F)[C@H]1C(=O)N2C(C(=O)O)=C(S[C@@H]3CN[C@H](CNC(=O)[C@@H]4CC[C@H](N)C4)C3)[C@H](C)[C@H]12 [Example 260]	1 µg/mL (≈ 1.89 µM)	4 µg/mL (≈ 7.55 µM)	8 µg/mL (≈ 15.1 µM)	32 µg/mL (≈ 60.4 µM)	–	–	–	–	–
